According to US20250120944A1, “ANTIBACTERIAL COMPOSITION” (SEOUL NATIONAL UNIVERSITY R&DB FOUNDATION, priority 2021, published 2025):

Legend:
[1] = test system: LC3; assay: immunoblotting of LC3 in S. typhimurium-infected J774A.1 cells treated with a lysosomal V-ATPase inhibitor; type: cell-based; settings: 100 nM, 4 hours
Method: (§1) First, J774A.1 macrophages (Korean Cell Line Bank) were cultured in RPMI (Rosewell Park Memorial Institue) supplemented with 10% FBS and 100 units/mL penicillin/streptomycin, and HeLa cells were cultured in Dulbecco's Modified Eagle's Medium (DMEM; Gibco, 10566016) supplemented with 10% FBS and 100 units/mL penicillin/streptomycin. All cell lines were tested negative for mycoplasma using the MycoAlert detection kit (Lonza, LT07-118), and all culture plates and cell lines were maintained in a humidified incubator at 37° C. and 5% CO2.
Macrophage J774A.1 and HeLa cells were infected with Salmonella typhimurium, a Gram-negative bacterium, and the expression of LC3 was monitored through immunoblotting. Mouse monoclonal anti-[…] (Abcam, ab56416, 1: 100,000) was used for immunoblotting, rabbit polyclonal anti-LC3 (Sigma, L7543, 1:40,000) was used for immunoblotting, and anti-rabbit IgG-HRP (Cell Signaling, 7074, 1:10,000) and anti-mouse IgG-HRP (Cell Signaling, 7076, 1:1000) were used as secondary antibodies.
The J774A.1 cells of Experimental Example 1-1 were treated with bafilomycin A1 (100 nM), an inhibitor of lysosomal V-ATPase, for 4 hours, and immunoblotting was performed in the same manner as in Experimental Example 1-1. However, there was no difference in the degree of inhibition of LC3-I and LC-II expression even when treated with lysosomal V-ATPase inhibitor (FIG. 1E).

[2] = test system: LC3; assay: immunoblotting of LC3 in J774A.1 and HeLa cells treated with LPS; type: cell-based; settings: 100 ng/mL, 6 hours
Method: as §1
[…] Mouse monoclonal anti-β62 (Abcam, ab56416, 1: 100,000) was used for immunoblotting, rabbit polyclonal anti-LC3 (Sigma, L7543, 1:40,000) was used for immunoblotting, and anti-rabbit IgG-HRP (Cell Signaling, 7074, 1:10,000) and anti-mouse IgG-HRP (Cell Signaling, 7076, 1:1000) were used as secondary antibodies.
In addition, in order to rule out the possibility that J774A.1 and HeLa cells lack the ability to induce autophagy in response to pathogen invasion, the J774A.1 and HeLa cells of Experimental Example 1-1 were treated with lipopolysaccharide (LPS) (100 ng/mL), a component of the outer membrane of Gram-negative bacteria, as a pathogen-associated molecular pattern (PAMP) for 6 hours, and immunoblotting was performed in the same manner as in Experimental Example 1-1.

| Compound | degree of inhibition of LC3-I and LC-II expression [1] | lipidation of LC3 (LC3-II) [2] | synthesis of LC3 (LC3-I) [2] |
| --- | --- | --- | --- |
| CO/C1=C\C(C)=C\[C@@H](C)[C@@H](O)[C@@H](C)C/C(C)=C/C=C/[C@H](OC)[C@@H]([C@@H](C)[C@@H](O)[C@H](C)[C@@]2(O)C[C@@H](O)[C@H](C)[C@@H](C(C)C)O2)OC1=O [bafilomycin A1] | no difference | – | – |
| lipopolysaccharide [LPS] | – | strongly induced | strongly induced |
